Measured values: patent US5519008A, “Derivatives of triterpenoid acids as inhibitors of cell-adhesion molecules ELAM-1 (E-selectin) and LECAM-1 (L-selectin)” (Glycomed Incorporated, priority 1992, dated 1996)

What was measured:
[1] = tested on: arachidonic acid (AA), murine skin inflammation; experiment: arachidonic acid (AA) murine skin (ear) inflammation model; type: in vivo; conditions: 10 μl of 100mg/ml solution applied to the ear immediately after AA; 6mm ear disk weighed 90 minutes later; average of 6 experiments
Protocol: For comparison, glycyrrhetinic acid was also tested. […] 10 μl of each compound was applied to the ear. […] 90 minutes later a 6mm disk of each ear was removed, and weighed. […] The results were the average of 6 experiments.

[2] = literature statement, Baren et al., J. Med. Chem. 17(2) (1974) 184-191; cited from earlier work

Molecule	reduction of the % maximal inflammatory response caused by AA alone [1]	aldosterone (DCA)-like activity [2]
3β-O-(α-L-fucopyranosyl)-18β-olean-12-en-30-oic Acid [3-0-fucoside-18-β glycyrrhetinic acid]	about 60%	–
CC1(C)[C@@H](O)CC[C@]2(C)[C@H]3CC=C4[C@@H]5C[C@@](C)(C(=O)O)CC[C@]5(C)CC[C@@]4(C)[C@]3(C)CC[C@@H]12 [11-deoxoglycyrrhetinic acid]	–	does not substantially show the DCA activity
CC1(C)[C@@H](O)CC[C@]2(C)[C@H]3C(=O)C=C4[C@@H]5C[C@@](C)(C(=O)O)CC[C@]5(C)CC[C@@]4(C)[C@]3(C)CC[C@@H]12 [glycyrrhetinic acid]	about 60%	–
